Experimental data published in article PMC3236199, “Development of Derivatives of 3, 3′-Diindolylmethane as Potent Leishmania donovani Bi-Subunit Topoisomerase IB Poisons” (PLoS ONE, 2011).

Assays:
[1] = system: DIM resistant parasites (LdDR50); test: DNA fragmentation assay (cell death detection ELISA), DIM resistant; format: cell-based, Leishmania donovani; settings: 20 µM
Method: Leishmanial cells were cultured in 24-well plates and treated with 20 µM of DIM, DPDIM, DMDIM and DMODIM for different times. Samples were collected at requisite time points and subjected to measurement of DNA fragmentations. Cytoplasmic histone-associated DNA fragments (mononucleosome and oligonucleosomes) formed during apoptosis were detected using a cell death detection ELISA kit (Roche Biochemicals) by spectrophotometric measurement of microtiter plates in a Thermo MULTISKAN EX plate reader at 405 nm. The relative percentages (with respect to samples treated with micrococcal nuclease and normalized to percentage values) were plotted as units of time or drug concentrations as described previously.
The internucleosomal DNA digestion by an endogenous nuclease (genomic DNA fragmentation) is considered as a hallmark of apoptotic cell death. […] To investigate whether these derivatives also do the same, we performed the DNA fragmentation assay with wild type L. donovani AG83 promastigotes and DIM resistant parasites (Fig. 4) by ELISA as described in Materials and Methods. […] DNA fragmentation increased to 85%, 89%, 81% and 71% at 8 h of treatment in wild type parasites. The DIM resistant parasites (LdDR50) have much less effect in DNA fragmentation (13% at 6 h and 17% at 8 h) when treated with 20 µM DIM. On the other hand the extents of DNA fragmentations were 63%, 51% and 40% at 6 h treatment with DPDIM, DMDIM and DMODIM respectively. The extent of fragmentation increased to 82%, 74% and 65% after treatment for 8 h with the drugs as mentioned above.
Figure 4 DIM derivatives-induced fragmentation of genomic DNA in wild type and DIM resistant parasites. Relative percentage of DNA fragmentation measured by cell death detection ELISA kit in L. donovani promastigotes treated with DIM, DPDIM, DMDIM and DMODIM. The experiments were performed three times and representative data from one of these experiments as means ± SD.

[2] = system: L. donovani topoisomerase I; test: Immunoband depletion assay, topoisomerase I; format: cell-based, Leishmania donovani; settings: 20 µM, 6 h incubation, promastigotes
Method: Leishmania cells (3×10^7) were cultured in absence and presence of the drugs. Nuclear fractions were isolated as described. Briefly, cells were suspended in hypotonic buffer (10 mM Tris-HCl, pH 7.5, 1 mM EDTA, 0.1 mM EGTA, 1 mM PMSF, 1 mM benzamidine hydrochloride and 5 mM DTT) and homogenized. The homogenate was centrifuged for 10 min at 10,000 g. The pellets were washed and used as the source of nuclear fraction. Thereafter, the nuclear fractions were lysed with 1% SDS and subjected to SDS-PAGE (10%). The proteins were electrophoretically transferred to nitrocellulose membranes and immumobloting of immobilized proteins were carried out using a rabbit polyclonal antibody raised against LdTOP1S for topoisomerase I and ATPase domain of L. donovani topoisomerase II [8].
We have reported earlier that DIM induces topoisomerase I and not topoisomerase II-mediated cleavable complex formation in L. donovani. To investigate the ability of DIM derivatives to induce in vivo covalent complex formation between topoisomerase I and DNA in the Leishmania parasites we performed the immunoband depletion experiments with L. donovani promastigotes. Nuclear fractions were prepared from untreated as well as drug-treated promastigotes and subjected to SDS-PAGE. If topoisomerase I can form a covalent complex with genomic DNA inside the cells, then topoisomerase I-DNA cleavable complex cannot enter into the gel. […] The presence of topoisomerase I was detected by immunoblotting as described in ‘Materials and Methods’. It was observed that the immunoband of topoisomerase I disappeared in presence of 20 µM of DIM, DPDIM, DMDIM and DMODIM for 6 h incubation respectively (lanes 2–5). […] It should be mentioned here that topoisomerase I of Leishmania is a heterodimer and the catalytic site (SKXXY) is present in the small subunit of enzyme (LdTOP1S), which is involved in the formation of topoisomerase I-DNA covalent complex. So we have used the antibody raised against the small subunit of L. donovani topoisomerase I to study the immunoband depletion assay.
Figure 6 DIM-derivatives induce in vivo formation of topoisomerase-DNA cleavable complex within the cells. Stabilization of topoisomerase-I mediated cleavable complex was determined by immunoband depletion assay. Top panel: Immunoband depletion of L. donovani topoisomerase I, using an antibody raised against […]. Leishmanial cells were treated with 0.2% DMSO alone (lane 1), 20 µM each of DIM (lane 2), DPDIM (lane 3), DMDIM (lane 4) and DMODIM (lane 5) respectively. Lanes 6–9, preincubation with 20 µM DHBA before treatment with DIM, DPDIM, DMDIM and DMODIM respectively. Bottom panel: β-tubulin loading control.

| Compound | fragmentation of DNA ([1]; 6 h) [%] | fragmentation of DNA ([1]; 8 h) [%] | immunoband of topoisomerase I [2] |
| --- | --- | --- | --- |
| c1ccc2c(Cc3c[nH]c4ccccc34)c[nH]c2c1 [DIM, 3, 3′-diindolyl methane, reference compound] | 13 | 17 | disappeared |
| Cc1[nH]c2ccccc2c1Cc1c(C)[nH]c2ccccc12 [DMDIM, 2,2′-dimethyl 3,3′-diindolyl methane] | 51 | 74 | disappeared |
| COc1ccc2[nH]cc(Cc3c[nH]c4ccc(OC)cc34)c2c1 [DMODIM, 5,5′-dimethoxy 3,3′-diindolyl methane] | 40 | 65 | disappeared |
| c1ccc(-c2[nH]c3ccccc3c2Cc2c(-c3ccccc3)[nH]c3ccccc23)cc1 [DPDIM, 2,2′-diphenyl 3,3′-diindolyl methane] | 63 | 82 | disappeared |
